Earlier results on one compound are cited in patent US20130011354A1, “Compositions For Enhancing Hair Growth” (Allergan, Inc., priority 2009, published 2013).

The data set deals with eyelashes. The following applies: Lumigan ophthalmic solution applied in the FDA approved manner for glaucoma.

For `CCNC(=O)CCC/C=C\C[C@@H]1[C@@H](/C=C/[C@@H](O)CCc2ccccc2)[C@H](O)C[C@@H]1O` [Bimatoprost, cyclopentane N-ethyl heptanamide-5-cis-2-(3α-hydroxy-5-phenyl-1-trans-pentenyl)-3,5-dihydroxy, [1α,2β,3α,5α]], the growth of eyelashes entry is “effective to increase the growth of eyelashes”.
